Reference: patent US20200157563A1, “METHODS OF PRODUCING HUMAN CANCER CELL MODELS AND METHODS OF USE” (The Broad Institute, Inc., priority 2017, published 2020)
Where “and” joins values, the source holds several entries; their conditions need not be identical. Equal entries are not always repeated.

Each substance was assayed on TERT promoter or exon 1 (assay: Efficiency of tested Cas9 guide sequences (indel formation after RNP delivery)). Details: 3 days post-editing; Cas9 guide targeting TERT promoter or exon 1; replicates 1 and 2 listed separately.
Type: cell-based, human
Procedure: Guide sequences for all genes were determined by empirically testing multiple guides per gene for cutting efficiency (on the extreme end, we tested around 40 Cas9 guide sequences for TERT before settling on one that works).
Applicants also determined guide RNAs for introducing indels at the TERT gene (FIG. 12).
Mutations were first engineered into CDKN2A (‘C’), BRAF (‘B’), and TERT (‘T’) (FIGS. 19A-19G). Lesions in these three genes happen early in melanoma pathogenesis and are exceptionally common, co-occurring events (Akbani et al. Cell 161:1681-1696 (2015)) that have been hypothesized to suffice for malignant transformation (Shain et al. Nat Rev Cancer 16:345-358 (2016); Shain et al. N Engl J Med 373:1926-1936 (2015)). After electroporation of Cas9 ribonucleoprotein complex (RNP) (Rimm et al. Am J Pathol 154:325-329 (1999)) targeting CDKN2A exon 2, the only exon shared by both p16 and p14 protein products, small insertions and deletions (‘indels’) in the gene underwent natural positive selection during cell culture from a 90-95% allele frequency at day three to nearly 100% by day 42 (FIG. 19A). Into these CDKN2A knockout (‘C’) melanocytes, Applicants next introduced the BRAF V600E mutation by co-delivering Cas9 RNP targeting BRAF exon 15 together with a homologous DNA donor encoding the V600E mutation. Recombinant adeno-associated virus (rAAV) was used to deliver the DNA donor (Rimm et al. Am J Pathol 154:325-329 (1999)) in order to increase the low editing efficiency over plasmid or single-stranded oligodeoxynucleotide donors (data not shown; Dever et al. Nature 539:384-389 (2016)). Over roughly 150 days in culture, the BRAF V600E allele increased from a frequency of 6% at day 3 to nearly 100% at day 155 (FIG. 19B). Finally, into these CDKN2A knockout, BRAF V600E mutant (‘CB’) melanocytes, Applicants introduced the −124C>T (also known as C228T) TERT promoter mutation by co-delivery of Cas9 RNP targeting TERT exon 1 together with a homologous DNA donor encoding TERT −124C>T. The −124C>T TERT promoter mutation allele shifted from a stable allele frequency of 3-5% over the first 30 days in culture to roughly 50% by day 75, and stayed at roughly 50% for more than 300 days of continuous culture (FIG. 19C; this 50% frequency is further discussed below). Engineering the TERT promoter mutation was the most technically difficult of these three mutations, and required testing forty different Cas9 guide sequences to identify a potent reagent for making double stranded breaks near the TERT promoter locus (Table 9), possibly due to the high G:C content or closed chromatin state at this locus (Yeh et al. Nat Commun 8:644 (2017)).
Cas9 protein, tracrRNA, and crRNAs (‘guides’, Table 20) were purchased and prepared according to manufacturer's instructions (IDT). To generate RNP complexes, 3-6 μg Cas9 and 45 pmol previously annealed crRNA:trRNA were incubated together for 10 minutes at 25° C. before delivery by electroporation. To target CDKN2A, two crRNAs were mixed at a molar ratio of 1:1 (22.5 pmol crRNA 1: 22.5 pmol crRNA 2) and incubated with 3 μg Cas9.
Electroporation was performed using the Lonza Nucleofector 4D System (program: EO-208) and P3 Primary Cell Nucleofector Kit (Lonza), according to manufacturer's instructions, with optional inclusion of 100 pmol electroporation enhancer (IDT 1075916). After electroporation, cells were incubated with 80 μL of warm media for 10 minutes at 37° C. to enhance recovery and were directly transferred into a tissue culture plate.
DNA was extracted using QuickExtract DNA Extraction Solution following recommended guidelines (Epicentre). Target genomic loci were amplified using gene-specific primers (Table 21) that included universal handles for later attachment of barcoded Illumina adaptors using an additional round of PCR. […]

Substance | % Indel Post-Editing
1 (guide TGGGAGGGCCCGGAGGGGGC; chemistry not given here) [compound 1] | 0.1686% and 0.2057%
2 (guide GTCCCCGGCCCAGCCCCCTC; chemistry not given here) [compound 2] | 0.29% and 0.6087%
3 (guide TCCCCGGCCCAGCCCCCTCC; chemistry not given here) [compound 3] | 0.2836% and 0.473%
4 (guide GGGGCTGGGAGGGCCCGGAG; chemistry not given here) [compound 4] | 0.2787% and 0.05972%
5 (guide GGGCTGGGAGGGCCCGGAGG; chemistry not given here) [compound 5] | 0.3738% and 0.4065%
6 (guide GGGAGGGCCCGGAGGGGGCT; chemistry not given here) [compound 6] | 0.3562% and 0.3112%
7 (guide GAGGGGCTGGGAGGGCCCGG; chemistry not given here) [compound 7] | 0.2257% and 0.1728%
16 (guide GGCCGCGGAAAGGAAGGGGA; chemistry not given here) [compound 16] | 0.1942% and 0.09556%
17 (guide GAAACTCGCGCCGCGAGGAG; chemistry not given here) [compound 17] | 0.03391% and 0.163%
18 (guide GCCCCTCCCCTTCCTTTCCG; chemistry not given here) [compound 18] | 2.299% and 1.045%
19 (guide TGCCTGAAACTCGCGCCGCG; chemistry not given here) [compound 19] | 0.3096% and 0.2587%
20 (guide GCGGGGCCGCGGAAAGGAAG; chemistry not given here) [compound 20] | 0.1376% and 0.1734%
21 (guide AAACTCGCGCCGCGAGGAGA; chemistry not given here) [compound 21] | 0.5362% and 0.5957%
22 (guide GGCGGGGCCGCGGAAAGGAA; chemistry not given here) [compound 22] | 1.212% and 0.3044%
23 (guide GCCGCGGAAAGGAAGGGGAG; chemistry not given here) [compound 23] | 0.7353% and 0.8087%
24 (guide GGGCCGCGGAAAGGAAGGGG; chemistry not given here) [compound 24] | 0.19% and 0.2632%

Substance | % Indel Post-Editing
25 (guide GGAAAGGAAGGGGAGGGGCT; chemistry not given here) [compound 25] | 0.6945% and 1.088%
26 (guide GCTGCGCAGCCACTACCGCG; chemistry not given here) [compound 26] | 9.609% and 9.23%
27 (guide TGGCCAGCGGCAGCACCTCG; chemistry not given here) [compound 27] | 13.61% and 13.93%
28 (guide GGGGAGCGCGCGGCATCGCG; chemistry not given here) [compound 28] | 1.175% and 1.846%
29 (guide GCTGCGCAGCAGGGAGCGCA; chemistry not given here) [compound 29] | 0.5165% and 0.5841%
31 (guide CCACGTTCGTGCGGCGCCTG; chemistry not given here) [compound 31] | 3.555% and 3.026%
32 (guide TGCCGCTGGCCACGTTCGTG; chemistry not given here) [compound 32] | 0.1665% and 0.1061%
33 (guide CGCCGCACGAACGTGGCCAG; chemistry not given here) [compound 33] | 2.925% and 2.489%
34 (guide GCGGTAGTGGCTGCGCAGCA; chemistry not given here) [compound 34] | 27.04% and 29.27%
35 (guide CTACCGCGAGGTGCTGCCGC; chemistry not given here) [compound 35] | 1.038% and 1.547%
36 (guide GCGGCAGCACCTCGCGGTAG; chemistry not given here) [compound 36] | 2.113% and 1.684%
37 (guide GGGAGCGCACGGCTCGGCAG; chemistry not given here) [compound 37] | 5.208% and 5.478%
38 (guide GGAGCGCACGGCTCGGCAGC; chemistry not given here) [compound 38] | 0.8353% and 1.797%
39 (guide GAGCGCACGGCTCGGCAGCG; chemistry not given here) [compound 39] | 6.049% and 7.137%
40 (guide GCTCGGCAGCGGGGAGCGCG; chemistry not given here) [compound 40] | 14.09% and 12.53%

Same assay, conditions: 5 days post-editing; Cas9 guide targeting TERT promoter or exon 1; replicates 1 and 2 listed separately

Substance | % Indel Post-Editing
8 (guide GGGGGCTGGGCCGGGGACCC; chemistry not given here) [compound 8] | 0.1929% and 0.225%
9 (guide GGCTGGGCCGGGGACCCGGG; chemistry not given here) [compound 9] | 0.5674% and 0.398%
10 (guide GCTGGGCCGGGGACCCGGGA; chemistry not given here) [compound 10] | 0.3155% and 0.389%
11 (guide CTGGGCCGGGGACCCGGGAG; chemistry not given here) [compound 11] | 0.2288% and 0.2733%
12 (guide GCCGGGGACCCGGGAGGGGT; chemistry not given here) [compound 12] | 0.1682% and 0.08339%
13 (guide CCGGGGACCCGGGAGGGGTC; chemistry not given here) [compound 13] | 0.06603% and 0.05525%
14 (guide CGCCCCGTCCCGACCCCTCC; chemistry not given here) [compound 14] | 0.04851% and 0.09263%
15 (guide GCCCCGTCCCGACCCCTCCC; chemistry not given here) [compound 15] | 0.375%
